Results from patent US20260258032A1, “TYROSINE KINASE 2 INHIBITORS AND USES THEREOF” (BIOGEN MA INC., priority 2022, published 2026).
Counter-ions that a name gives are not always drawn.

How the values were obtained:
JH2 domain of human Tyk2 = target: T1, JH2 domain of human Tyk2 (Homo sapiens, UniProt P29597); assay: JH2 biochemical assay (TR-FRET probe displacement); assay type: binding; conditions: JH2 biochemical assay
T1 construct: 10×His-tagged TYK2 JH2 domain (amino acid 575-876)
In short: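 10×His-tagged human TYK2 JH2 (aa 575-876, 2 nM) incubated 60 min with 2 nM fluorescent probe, 0.1 nM Tb anti-His antibody and compound (10-point 3-fold series from […] top). TR-FRET 520/495 nm ratio, falling with probe displacement, normalized and fitted to a 4-parameter logistic for IC50.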

[1] = test system: Tyk2 kinase activity on STAT4; assay: pSTAT4 cell assay (MSD, NK92 cells); assay type: cell-based; conditions: compounds 1 hr, stimulated 15 minutes
In short: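 Serum-starved NK92 cells, which natively express Tyk2 and STAT4, were pretreated for 1 h with a 10-point 4-fold dilution series from 10 μM. They were then stimulated with 30 ng/mL IL2 for 15 min. Phospho-STAT in lysates was quantified by MSD with anti-STAT4 antibodies, and IC50 was obtained from 4-parameter logistic fits.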

T1 sequence (P29597 575-876): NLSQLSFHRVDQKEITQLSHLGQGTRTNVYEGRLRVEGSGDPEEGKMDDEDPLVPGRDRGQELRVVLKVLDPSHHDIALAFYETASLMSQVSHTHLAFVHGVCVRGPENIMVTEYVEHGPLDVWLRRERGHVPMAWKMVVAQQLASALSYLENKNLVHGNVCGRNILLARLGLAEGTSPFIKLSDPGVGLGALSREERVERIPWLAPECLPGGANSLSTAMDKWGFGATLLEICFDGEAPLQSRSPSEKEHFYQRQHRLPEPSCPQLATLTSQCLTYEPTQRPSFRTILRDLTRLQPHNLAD

| SMILES | IC50 (JH2 domain of human Tyk2) [nM] | IC50 [1] [nM] |
| --- | --- | --- |
| CC(=O)Nc1cc2c(cn1)C1(CC1)CN2c1cc(C)nc(N2CCC(C)(O)C2)n1 (centres unmarked) [Example 236, N-(1′-(2-(3-hydroxy-3-methylpyrrolidin-1-yl)-6-methylpyrimidin-4-yl)-1′,2′-dihydrospiro[cyclopropane-1,3′-pyrrolo[3,2-c]pyridin]-6′-yl)acetamide] | 10 to 100 | ≥ 1000 |
| CC(=O)Nc1cc2c(cn1)C1(CC1)CN2c1cc(C)nc(N2CC(O)C2)n1 [Example 237, N-(1′-(2-(3-hydroxyazetidin-1-yl)-6-methylpyrimidin-4-yl)-1′,2′-dihydrospiro[cyclopropane-1,3′-pyrrolo[3,2-c]pyridin]-6′-yl)acetamide] | 10 to 100 | ≥ 1000 |
| CC(=O)Nc1cc2c(cn1)C1(CC1)CN2c1cc(-c2cn(C)nc2C)nc(C(C)(F)F)n1 [Example 239, N-(1′-(2-(1,1-difluoroethyl)-6-(1,3-dimethyl-1H-pyrazol-4-yl)pyrimidin-4-yl)-1′,2′-dihydrospiro[cyclopropane-1,3′-pyrrolo[3,2-c]pyridin]-6′-yl)acetamide trifluoroacetate] | ≤ 10 | 10 to 100 |
| CC(=O)Nc1cc2c(cn1)C1(CC1)CN2c1cc(-c2cnn(C)c2C)nc(C(C)(F)F)n1 [Example 240, N-(1′-(2-(1,1-difluoroethyl)-6-(1,5-dimethyl-1H-pyrazol-4-yl)pyrimidin-4-yl)-1′,2′-dihydrospiro[cyclopropane-1,3′-pyrrolo[3,2-c]pyridin]-6′-yl)acetamide trifluoroacetate] | ≤ 10 | 10 to 100 |
| CC(=O)Nc1cc2c(cn1)C1(CC1)CN2c1cc(-c2ccn(C)n2)nc(C(C)(F)F)n1 [Example 241, N-(1′-(2-(1,1-difluoroethyl)-6-(1-methyl-1H-pyrazol-3-yl)pyrimidin-4-yl)-1′,2′-dihydrospiro[cyclopropane-1,3′-pyrrolo[3,2-c]pyridin]-6′-yl)acetamide] | ≤ 10 | 10 to 100 |
| CC(=O)Nc1cc2c(cn1)C1(CC1)CN2c1cc(-c2ccc(C)nc2)nc(C(C)(F)F)n1 [Example 242, N-(1′-(2-(1,1-difluoroethyl)-6-(6-methylpyridin-3-yl)pyrimidin-4-yl)-1′,2′-dihydrospiro[cyclopropane-1,3′-pyrrolo[3,2-c]pyridin]-6′-yl)acetamide] | ≤ 10 | 10 to 100 |
| COc1ccc(-c2cc(N3CC4(CC4)c4cnc(NC(C)=O)cc43)nc(C(C)(F)F)n2)cn1 [Example 243, N-(1′-(2-(1,1-difluoroethyl)-6-(6-methoxypyridin-3-yl)pyrimidin-4-yl)-1′,2′-dihydrospiro[cyclopropane-1,3′-pyrrolo[3,2-c]pyridin]-6′-yl)acetamide trifluoroacetate] | ≤ 10 | 10 to 100 |
| CC(=O)Nc1cc2c(cn1)C1(CC1)CN2c1cc(C)nc(-c2ccn(C)n2)n1 [Example 244, N-(1′-(6-methyl-2-(1-methyl-1H-pyrazol-3-yl)pyrimidin-4-yl)-1′,2′-dihydrospiro[cyclopropane-1,3′-pyrrolo[3,2-c]pyridin]-6′-yl)acetamide trifluoroacetate] | 10 to 100 | ≥ 1000 |
| CC(=O)Nc1cc2c(cn1)C1(CC1)CN2c1cc(C)nc(-c2cnn(C)c2)n1 [Example 245, N-(1′-(6-methyl-2-(1-methyl-1H-pyrazol-4-yl)pyrimidin-4-yl)-1′,2′-dihydrospiro[cyclopropane-1,3′-pyrrolo[3,2-c]pyridin]-6′-yl)acetamide trifluoroacetate] | 10 to 100 | 100 to 1000 |
| CCn1cc(-c2nc(C)cc(N3CC4(CC4)c4cnc(NC(C)=O)cc43)n2)cn1 [Example 247, N-(1′-(2-(1-ethyl-1H-pyrazol-4-yl)-6-methylpyrimidin-4-yl)-1′,2′-dihydrospiro[cyclopropane-1,3′-pyrrolo[3,2-c]pyridin]-6′-yl)acetamide] | ≤ 10 | 100 to 1000 |
| CC(=O)Nc1cc2c(cn1)C1(CC1)CN2c1cc(C)nc(-c2cnn(C)c2C(F)F)n1 [Example 248, N-(1′-(2-(5-(difluoromethyl)-1-methyl-1H-pyrazol-4-yl)-6-methylpyrimidin-4-yl)-1′,2′-dihydrospiro[cyclopropane-1,3′-pyrrolo[3,2-c]pyridin]-6′-yl)acetamide] | 10 to 100 | ≥ 1000 |
| CC(=O)Nc1cc2c(cn1)C1(CC1)CN2c1cc(C)nc(-c2cnn(C(C)C)c2)n1 [Example 249, N-(1′-(2-(1-isopropyl-1H-pyrazol-4-yl)-6-methylpyrimidin-4-yl)-1′,2′-dihydrospiro[cyclopropane-1,3′-pyrrolo[3,2-c]pyridin]-6′-yl)acetamide] | 10 to 100 | ≥ 1000 |
| CC(=O)Nc1cc2c(cn1)C1(CC1)CN2c1cc(C)nc(-c2cnn(C3CC3)c2)n1 [Example 250, N-(1′-(2-(1-cyclopropyl-1H-pyrazol-4-yl)-6-methylpyrimidin-4-yl)-1′,2′-dihydrospiro[cyclopropane-1,3′-pyrrolo[3,2-c]pyridin]-6′-yl)acetamide] | 10 to 100 | ≥ 1000 |
| CC(=O)Nc1cc2c(cn1)C1(CC1)CN2c1cc(C)nc(-c2cnn(C3COC3)c2)n1 [Example 251, N-(1′-(6-methyl-2-(1-(oxetan-3-yl)-1H-pyrazol-4-yl)pyrimidin-4-yl)-1′,2′-dihydrospiro[cyclopropane-1,3′-pyrrolo[3,2-c]pyridin]-6′-yl)acetamide trifluoroacetate] | 10 to 100 | ≥ 1000 |
| CC(=O)Nc1cc2c(cn1)C1(CC1)CN2c1cc(C)nc(-c2cnn(CC3CC3)c2)n1 [Example 253, N-(1′-(2-(1-(cyclopropylmethyl)-1H-pyrazol-4-yl)-6-methylpyrimidin-4-yl)-1′,2′-dihydrospiro[cyclopropane-1,3′-pyrrolo[3,2-c]pyridin]-6′-yl)acetamide trifluoroacetate] | 10 to 100 | ≥ 1000 |
| COc1ccc(-c2nc(C)cc(N3CC4(CC4)c4cnc(NC(C)=O)cc43)n2)cn1 [Example 254, N-(1′-(2-(6-methoxypyridin-3-yl)-6-methylpyrimidin-4-yl)-1′,2′-dihydrospiro[cyclopropane-1,3′-pyrrolo[3,2-c]pyridin]-6′-yl)acetamide trifluoroacetate] | 100 to 1000 | ≥ 1000 |
| CC(=O)Nc1cc2c(cn1)C1(CC1)CN2c1cc(C)cc(-c2ccn(C)n2)n1 [Example 256, N-(1′-(4-methyl-6-(1-methyl-1H-pyrazol-3-yl)pyridin-2-yl)-1′,2′-dihydrospiro[cyclopropane-1,3′-pyrrolo[3,2-c]pyridin]-6′-yl)acetamide trifluoroacetate] | 10 to 100 | ≥ 1000 |
| CC(=O)Nc1cc2c(cn1)C1(CC1)CN2c1cc(C)cc(-c2cnn(C)c2)n1 [Example 257, N-(1′-(4-methyl-6-(1-methyl-1H-pyrazol-4-yl)pyridin-2-yl)-1′,2′-dihydrospiro[cyclopropane-1,3′-pyrrolo[3,2-c]pyridin]-6′-yl)acetamide trifluoroacetate] | ≤ 10 | 100 to 1000 |
| CC(=O)Nc1cc2c(cn1)C1(CC1)CN2c1cc(C)cc(-c2cnn(S(C)(=O)=O)c2)n1 [Example 258, N-(1′-(4-methyl-6-(1-(methylsulfonyl)-1H-pyrazol-4-yl)pyridin-2-yl)-1′,2′-dihydrospiro[cyclopropane-1,3′-pyrrolo[3,2-c]pyridin]-6′-yl)acetamide trifluoroacetate] | 10 to 100 | 100 to 1000 |
| CC(=O)Nc1cc2c(cn1)C1(CC1)CN2c1cc(C)cc(-c2cnn(C(F)F)c2)n1 [Example 259, N-(1′-(6-(1-(difluoromethyl)-1H-pyrazol-4-yl)-4-methylpyridin-2-yl)-1′,2′-dihydrospiro[cyclopropane-1,3′-pyrrolo[3,2-c]pyridin]-6′-yl)acetamide trifluoroacetate] | ≤ 10 | 100 to 1000 |
| CCn1cc(-c2cc(C)cc(N3CC4(CC4)c4cnc(NC(C)=O)cc43)n2)cn1 [Example 260, N-(1′-(6-(1-ethyl-1H-pyrazol-4-yl)-4-methylpyridin-2-yl)-1′,2′-dihydrospiro[cyclopropane-1,3′-pyrrolo[3,2-c]pyridin]-6′-yl)acetamide trifluoroacetate] | 10 to 100 | ≥ 1000 |
| CC(=O)Nc1cc2c(cn1)C1(CC1)CN2c1cc(C)cc(-c2cnn(C(C)C)c2)n1 [Example 263, N-(1′-(6-(1-isopropyl-1H-pyrazol-4-yl)-4-methylpyridin-2-yl)-1′,2′-dihydrospiro[cyclopropane-1,3′-pyrrolo[3,2-c]pyridin]-6′-yl)acetamide trifluoroacetate] | 10 to 100 | ≥ 1000 |
| CC(=O)Nc1cc2c(cn1)C1(CC1)CN2c1cc(C)cc(-c2cnn(C3CC3)c2)n1 [Example 264, N-(1′-(6-(1-cyclopropyl-1H-pyrazol-4-yl)-4-methylpyridin-2-yl)-1′,2′-dihydrospiro[cyclopropane-1,3′-pyrrolo[3,2-c]pyridin]-6′-yl)acetamide trifluoroacetate] | 10 to 100 | ≥ 1000 |
| CC(=O)Nc1cc2c(cn1)C1(CC1)CN2c1cc(N)nc(C(C)(F)F)n1 [Example 273, N-(1′-(6-amino-2-(1,1-difluoroethyl)pyrimidin-4-yl)-1′,2′-dihydrospiro[cyclopropane-1,3′-pyrrolo[3,2-c]pyridin]-6′-yl)acetamide trifluoroacetate] | ≤ 10 | 10 to 100 |
| CC(=O)Nc1cc2c(cn1)C1(CC1)CN2c1cc(C)cc(N2CC3CCN(C)C3C2)n1 (centres unmarked) [Example 277, N-(1′-(4-methyl-6-(1-methylhexahydropyrrolo[3,4-b]pyrrol-5(1H)-yl)pyridin-2-yl)-1′,2′-dihydrospiro[cyclopropane-1,3′-pyrrolo[3,2-c]pyridin]-6′-yl)acetamide trifluoroacetate] | 100 to 1000 | ≥ 1000 |
